In paper PMC7614687, “Modulation of the substrate specificity of the kinase PDK1 by distinct conformations of the full-length protein*” (Science signaling, 2023):
“And” between values parts separate entries of the source, which are not always exact repeats. Identical values can stand only once. “Also recorded” adds a separate entry of the source. Like-named read-outs stand apart in the source and are kept apart here. Values belong to the molecule of their own block, whether it stands above or below them.

Columns and labels:
[1] = molecular target: T1, His-PDK1_1-556 and GST-PDK1_360-556 (Homo sapiens, UniProt O15530); experiment: AlphaScreen PDK1 dimerization assay His-PDK1_1-556 / GST-PDK1_360-556; assay type: binding
T1 construct: made in house; host or cells: Sf9 insect cells (His-PDK1_1-556); HEK293 cells (GST-PDK1_360-556)
T1 sequence (O15530 1-556): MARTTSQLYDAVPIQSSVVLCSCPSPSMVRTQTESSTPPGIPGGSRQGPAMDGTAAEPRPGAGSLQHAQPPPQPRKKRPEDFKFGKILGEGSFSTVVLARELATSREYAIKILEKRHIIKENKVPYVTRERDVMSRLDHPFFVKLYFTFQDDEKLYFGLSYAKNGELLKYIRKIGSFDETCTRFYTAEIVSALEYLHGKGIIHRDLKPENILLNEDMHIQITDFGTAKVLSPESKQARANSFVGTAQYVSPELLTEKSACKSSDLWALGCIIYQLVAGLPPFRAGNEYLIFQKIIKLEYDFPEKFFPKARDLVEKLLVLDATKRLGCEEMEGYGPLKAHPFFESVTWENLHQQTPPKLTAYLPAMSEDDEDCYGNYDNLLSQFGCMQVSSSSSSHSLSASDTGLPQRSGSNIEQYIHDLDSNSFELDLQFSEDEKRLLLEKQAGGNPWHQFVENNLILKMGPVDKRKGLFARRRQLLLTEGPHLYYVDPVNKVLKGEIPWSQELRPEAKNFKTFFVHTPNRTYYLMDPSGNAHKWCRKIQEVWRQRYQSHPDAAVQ
Experimental: (§1) The AlphaScreen® assay was performed following the general guidelines from the manufacturer (Perkin Elmer) ([29]). In short, the assay was performed in a final volume of 25 μl in white 384-well microtiter plates (Greiner) in a standard buffer containing 50 mM Tris-HCl (pH 7.4), 100 mM NaCl, 2 mM DTT, 0.01% (v/v) Tween-20 and 0.1% (w/v) BSA, with the addition of 5 μl of beads (anti-GST coated acceptor beads and streptavidin-coated donor beads; nickel chelate-coated acceptor beads and streptavidin-coated donor beads; or nickel chelate-coated acceptor beads and GSH-coated donor beads, 20 μg/ml final concentrations for each bead type). AlphaScreen assays for His-tagged proteins and GST-fusion proteins were performed using nickel chelate-coated acceptor beads and GSH-coated donor beads; alphascreen assays for His-tagged proteins and biotinylated molecules were performed using nickel chelate-coated acceptor beads and streptavidin-coated donor beads; alphascreen assays for GST-fusion proteins and biotinylated molecules were performed using anti-GST coated acceptor beads and streptavidin-coated donor beads (Perkin Elmer).
The conditions for each AlphaScreen assay were identified in cross-titration experiments for each interaction to choose the ideal pair of concentrations within the linear range of the interactions. […] His-PDK1 and GST-fusion protein in the presence or absence of the different compounds were incubated in the dark for 60 min at room temperature and the emission of light from the acceptor beads was measured in an EnVision reader (Perkin Elmer) or Spark plate reader (Tecan). […]

PDK1_1-556 = molecular target: T2, PDK1_1-556 (Homo sapiens, UniProt O15530); experiment: Differential scanning fluorimetry, thermal stability of PDK1_1-556; assay type: binding; conditions: PDK1 1 μM
T2 construct: effect of HYG8 on the thermal stability (ΔTm) of PDK1_1-556 (H) and PDK1_50-359 (I); His (N); made in house; host or cells: Sf9 insect cells (baculovirus)
T2 sequence (O15530 1-556): T1 sequence (O15530 1-556)
Experimental: The thermal stability of PDK1 was assessed by monitoring the unfolding of PDK1 by the increase in the fluorescence of SYPRO Orange (Invitrogen) using a real-time PCR device (StepOnePlus, Applied Biosystems and BioRad CFX96) following a previously described protocol ([70]). The reactions were performed in a final volume of 10 μl in white 96-well PCR microtiter plates (Greiner) and contained 1 μM PDK1, 10 mM HEPES (pH 7.5), 150 mM NaCl, 1/1000 SYPRO Orange and 1 mM dithiothreitol. For valsartan, the assay buffer was modified to exclude NaCl. PIFtide or compounds (at a final DMSO concentration of 1%) were added to this reaction mixture. The temperature gradient was performed in steps of 0.3 °C in the range from 25 to 70 °C. To calculate the Tm values, data were exported to GraphPad Prism and curves fitted to a Boltzmann sigmoidal equation with an acceptable confidence interval of 95%. Statistical analysis was performed with Infostat software (http://www.infostat.com.ar) and GraphPad Prism by first verifying a normal distribution of pooled residuals (Shapiro-Wilks test) and homogeneity of variance (F test), and then performing a one-way ANOVA followed by the post hoc comparisons test indicated in each figure legend.

PDK1 = molecular target: T3, PDK1 (Homo sapiens, UniProt O15530); experiment: Thermo Fisher "PDK1 Direct" assay (peptide Ser/Thr 07, FRET readout); assay type: biochemical; conditions: for times less potent inhibitors than HYG7, HYG8 and HYG14: PDK1 Direct assay IC50 comparison
T3 sequence (O15530 1-556): T1 sequence (O15530 1-556)

GST-PDK1_1-556 = molecular target: T4, GST-PDK1_1-556 (Homo sapiens, UniProt O15530); experiment: AlphaScreen GST-PDK1_1-556 / biotin-PIFtide interaction; assay type: binding
T4 construct: made in house; host or cells: HEK293 cells (transient transfection of pEBG2T); peptide synthesized by Pepscan
T4 sequence (O15530 1-556): T1 sequence (O15530 1-556)
Experimental: as §1
The interaction between GST-PDK1_1-556 and biotin-PIFtide was performed as described previously ([29], [32]) in the standard buffer, but the bead concentration was lowered to 15 μg/ml.

[2] = replicate point 1, read-out: % Inhibition Point 1
[3] = replicate point 2, read-out: % Inhibition Point 2
[4] = single point, N=2, read-out: Inhibition at 1 μM (%)
[5] = absence of PIFtide, read-out: IC50 (nM), displacement of His-PDK1_1-556 interaction with GST-PDK1_360-556
[6] = with PIFtide, read-out: IC50 (nM), displacement of His-PDK1_1-556 interaction with GST-PDK1_360-556 with PIFtide

Molecule: CC(C)C(NCc1ccc(-c2ccccc2-c2nnn[nH]2)cc1)C(=O)O (stereo not drawn) [Des(oxopentyl) valsartan, des(oxopentyl)valsartan, reference compound]
- effect on PDK1 dimer formation [1]: did not disrupt PDK1 dimers

Molecule: CNc1nc(-c2ccc3c(N)n[nH]c3c2)cc(N2C[C@@H](C(=O)NC3CCCCC3)CC[C@H]2C)n1 [GSK2334470]
- effect on PDK1 dimer formation [1]: None of these compounds affected the dimerization

Molecule: O=P(O)(O)OC1[C@H](O)[C@H](OP(=O)(O)O)C(OP(=O)(O)O)[C@H](OP(=O)(O)O)[C@H]1O (stereo partly drawn) [IP4, inositol-1,3,4,5-tetrakisphosphate, reference compound]
- effect on PDK1-PIFtide interaction (GST-PDK1_1-556): did not enhance binding to PIFtide

Molecule: O=P(O)(O)O[C@@H]1[C@@H](OP(=O)(O)O)[C@H](OP(=O)(O)O)[C@H](O)[C@H](OP(=O)(O)O)[C@H]1OP(=O)(O)O [IP5, inositol-1,3,4,5,6-pentaphosphate, reference compound]
- Tm (°C), temperature stabilization of PDK1_1-556 (PDK1_1-556; compound 1 µM): 5.3 °C
- Tm (°C), temperature stabilization of PDK1_1-556 (PDK1_1-556; compound 20 µM): 11.9 °C
- inhibition at 1 µM (PDK1; [2]): 63%
- inhibition at 1 µM (PDK1; [3]): 69%
- inhibition at 1 µM (PDK1; [4]): 66%
- Hill slope, PDK1 direct (PDK1; 10-point titration): 1.33
- IC50 (PDK1; 10-point titration): 577 nM
- times less potent inhibitors than HYG7, HYG8 and HYG14 (PDK1): 15 to 36 times
- IC50 [1, 5]: 67 nM
- IC50 [1, 6]: 59.4 nM

Molecule: O=P(O)(O)O[C@H]1[C@H](OP(=O)(O)O)[C@@H](OP(=O)(O)O)[C@H](OP(=O)(O)O)[C@@H](OP(=O)(O)O)[C@H]1OP(=O)(O)O [IP6, inositol hexakisphosphate, reference compound]
- Tm (°C), temperature stabilization of PDK1_1-556 (PDK1_1-556; compound 1 µM): 6.2 °C
- Tm (°C), temperature stabilization of PDK1_1-556 (PDK1_1-556; compound 20 µM): 9.0 °C
- inhibition at 1 µM (PDK1; [2]): 8%
- inhibition at 1 µM (PDK1; [3]): 7%
- inhibition at 1 µM (PDK1; [4]): 8%
- Hill slope, PDK1 direct (PDK1; 10-point titration): –2.18
- IC50 (PDK1; 10-point titration): > 10000 nM
- IC50 (nM), PDK1 direct (PDK1; 10-point titration): inactive
- IC50 (nM), displacement of His-PDK1_1-556 interaction with GST-PDK1_360-556 ([1]; absence of PIFtide): Does not reach complete displacement; also recorded: no displacement
- IC50 (nM), displacement of His-PDK1_1-556 interaction with GST-PDK1_360-556 with PIFtide ([1]; with PIFtide): Does not reach complete displacement

Molecule: O=C(CC(c1ccccc1)C(C(=O)O)C(=O)O)c1ccc(C(F)(F)F)cc1 (stereo not drawn) [PS210]
- effect on PDK1 dimer formation [1]: None of these compounds affected the dimerization

Molecule: CN[C@@H]1C[C@H]2O[C@@](C)([C@@H]1OC)n1c3ccccc3c3c4c(c5c6ccccc6n2c5c31)C(=O)N[C@H]4O [UCN01]
- effect on PDK1 dimer formation [1]: do not affect the formation of PDK1 dimers

Molecule: Nc1ncnc2[nH]cnc12 [adenine]
- effect on PDK1 dimer formation [1]: do not affect the formation of PDK1 dimers

Molecule: O=P(O)(O)O[C@@H]1[C@@H](OP(=O)(O)O)[C@H](OP(=O)(O)O)[C@@H](O)[C@H](OP(=O)(O)O)[C@H]1OP(=O)(O)O [scyllo-IP5, reference compound]
- Tm (°C), temperature stabilization of PDK1_1-556 (PDK1_1-556; compound 1 µM): 4.7 °C
- Tm (°C), temperature stabilization of PDK1_1-556 (PDK1_1-556; compound 20 µM): 7.3 °C
- inhibition at 1 µM (PDK1; [2]): -8%
- inhibition at 1 µM (PDK1; [3]): -10%
- Inhibition at 1 μM (%) (PDK1; single point, N=2): -9%
- Inhibition at 1 μM (%) (PDK1; single point, N=2, listed as Scyllo-IP5, 1 µM): ≤ 10%
- IC50 [1, 5]: 124 nM
- IC50 [1, 6]: 140 nM

Molecule: REPRILSEEEQEMFRDFDYIADWS [PIFtide, peptide derived from the PRK2 HM (a PDK1 substrate)]
- effect on PDK1 dimer formation [1]: no effect on dimer formation

Results, then the molecule that gave them:

- Tm (°C), temperature stabilization of PDK1_1-556 (PDK1_1-556; compound 1 µM): 7.8 °C
- Tm (°C), temperature stabilization of PDK1_1-556 (PDK1_1-556; compound 20 µM): 9.9 °C
- inhibition at 1 µM (PDK1; [2]): 53%
- inhibition at 1 µM (PDK1; [3]): 64%
- inhibition at 1 µM (PDK1; [4]): 59%
- Hill slope, PDK1 direct (PDK1; 10-point titration): 1.11
- IC50 (PDK1; 10-point titration): 449 nM
- times less potent inhibitors than HYG7, HYG8 and HYG14 (PDK1): 15 to 36 times
- IC50 [1, 5]: 27 nM
- IC50 [1, 6]: 17.9 nM
Molecule: CC(=O)O[C@H]1[C@@H](OP(=O)(O)O)[C@H](OP(=O)(O)O)[C@@H](OP(=O)(O)O)[C@H](OP(=O)(O)O)[C@H]1OP(=O)(O)O [HYG6, 2-O-acetyl-IP5]

- Tm (°C), temperature stabilization of PDK1_1-556 (PDK1_1-556; compound 1 µM): 12.6 °C and 11-15 °C
- Tm (°C), temperature stabilization of PDK1_1-556 (PDK1_1-556; compound 20 µM): 14.5 °C and 13-16 °C
- inhibition at 1 µM (PDK1; [2]): 101%
- inhibition at 1 µM (PDK1; [3]): 99%
- inhibition at 1 µM (PDK1; [4]): 100%
- Hill slope, PDK1 direct (PDK1; 10-point titration): 1.39
- IC50 (PDK1; 10-point titration): 29 nM
- IC50 [1, 5]: 22.6 nM
- IC50 [1, 6]: 22.7 nM
Molecule: CCCC(=O)O[C@H]1[C@@H](OP(=O)(O)O)[C@H](OP(=O)(O)O)[C@@H](OP(=O)(O)O)[C@H](OP(=O)(O)O)[C@H]1OP(=O)(O)O [HYG7, 2-O-butyryl-IP5]
